We go through 20 compounds from patent US8227511B2, “Substituted chromanol derivatives and their use” (Bayer Intellectual Property GmbH, priority 2006, dated 2012).

Assay [1] deals with T1, CETP (Homo sapiens, UniProt P11597).
T1 construct: CETP is obtained in partially purified form from human plasma by differential centrifugation and column chromatography and used for the test; from tissue; host or cells: human plasma
T1 sequence (P11597 18-493): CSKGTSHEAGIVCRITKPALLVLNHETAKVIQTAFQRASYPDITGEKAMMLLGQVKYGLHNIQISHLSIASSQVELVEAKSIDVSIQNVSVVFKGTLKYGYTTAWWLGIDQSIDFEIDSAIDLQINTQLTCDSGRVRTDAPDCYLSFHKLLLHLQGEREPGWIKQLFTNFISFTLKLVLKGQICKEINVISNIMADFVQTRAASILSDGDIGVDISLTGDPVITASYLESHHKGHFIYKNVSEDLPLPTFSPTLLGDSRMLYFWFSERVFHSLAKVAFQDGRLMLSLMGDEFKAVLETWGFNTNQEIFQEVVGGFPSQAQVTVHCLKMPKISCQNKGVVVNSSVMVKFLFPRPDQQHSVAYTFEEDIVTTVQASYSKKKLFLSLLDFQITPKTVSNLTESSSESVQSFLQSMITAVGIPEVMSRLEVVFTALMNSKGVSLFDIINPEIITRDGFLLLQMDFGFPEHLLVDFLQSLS
In words: CETP fluorescence test with enriched CETP. The settings on record: enriched CETP fraction from human plasma; transfer of fluorescent cholesterol ester between liposomes; 37° C. for 4 h. Type of assay: biochemical. The procedure: (§1) CETP is obtained in partially purified form from human plasma by differential centrifugation and column chromatography and used for the test. To this end, human plasma is adjusted to a density of 1.21 g per ml using NaBr and centrifuged at 4° C. at 50 000 rpm for 18 h. The bottom fraction (d>1.21 g/ml) is applied to a Phenyl-Sepharose 26/10 HP fast flow-column (Pharmacia), washed with PBS buffer and then eluted with distilled water. 10 parts of PBS buffer and 1% (w/v) BSA are added to the eluate. The CETP-active fractions are pooled.
Measurement of the CETP-catalyzed transfer of a fluorescent cholesterol ester between liposomes [modified according to the procedure of Bisgaier et al., J. Lipid Res. 34, 1625 (1993)]:
For the production of the donor liposomes, 1 mg of cholesteryl 4,4-difluoro-5,7-dimethyl-4-bora-3a,4a-diaza-s-indacene-3-dodecanoate (cholesteryl BODIPY® FL C12, Molecular Probes) is dissolved in 2 ml of chloroform with 5.35 mg of triolein and 6.67 mg of phosphatidylcholine. The solvent is removed at medium temperature in a SpeedVac and the residue is dried under high vacuum for 1 h. The residue is then dissolved in 600 μl of dioxane with gentle warming in an ultrasonic bath and this solution is added very slowly with ultrasonication to 63 ml of 50 mM Tris/HCl, 150 mM NaCl, 2 mM EDTA buffer pH 7.3 at room temperature. The suspension is then ultrasonicated under an N2 atmosphere for 30 minutes in the Branson ultrasonic bath at about 50 watts, the temperature being kept at about 20° C.
The acceptor liposomes are obtained analogously from 86 mg of cholesteryl oleate, 20 mg of triolein and 100 mg of phosphatidylcholine dissolved in 1.2 ml of dioxane and 114 ml of the above buffer by ultrasonication at 50 watts (20° C.) for 30 minutes.
For testing, a test mix consisting of 1 part of above buffer, 1 part of donor liposomes and 2 parts of acceptor liposomes is used.
50 μl of test mix are treated with 48 μl of enriched CETP fraction (1-3 μg), obtained from human plasma by means of hydrophobic chromatography, and 2 μl of a solution of the substance to be investigated in DMSO and incubated at 37° C. for 4 h.
The change in the fluorescence at 485/535 nm is a measure of the CE transfer; the inhibition of the transfer in comparison to the control batch without substance is determined.

Assay [2] addresses T1, CETP. In words: CETP-SPA test. The settings on record: transfer of 3H-cholesterol ester from human HDL to biotinylated LDL; 37° C. for 18 h. In kind it is biochemical. The procedure: as §1
For testing of the CETP activity, the transfer of ^3H-cholesterol ester from human HD lipoproteins to biotinylated LD lipoproteins is measured. The reaction is ended by addition of streptavidin-SPA® beads (Amersham) and the transferred radioactivity is determined directly in a liquid scintillation counter.
In the test batch, 10 μl of HDL-3H-cholesterol ester (about 50 000 cpm) are incubated at 37° C. for 18 h with 10 μl of biotin-LDL (Amersham) in 50 mM Hepes/0.15 M NaCl/0.1% bovine serum albumin (RSA)/0.05% NaN3 pH 7.4 containing 10 μl of CETP (1 mg/ml) and 3 μl of a solution of the substance to be tested (dissolved in 10% DMSO/1% RSA). 200 μl of the SPA-streptavidin bead solution (TRKQ 7005) are then added, incubated further with shaking for 1 h and then measured in a scintillation counter. Corresponding incubations with 10 μl of buffer, 10 μl of CETP at 4° C. and 10 μl of CETP at 37° C. serve as controls.
The activity transferred in the control batches with CETP at 37° C. is rated as 100% transfer. The substance concentration at which this transfer is reduced to half is specified as the IC50 value.

`CC(C)c1cc2c(c(-c3ccc(F)cc3)c1C(F)c1ccc(OC(F)(F)F)cc1)[C@@H](O)CC1(CCC1)O2` (mixture of isomers) [Example 40, (4S)-5-(4-Fluorophenyl)-6-{fluoro[4-(trifluoromethoxy)phenyl]methyl}-7-isopropyl-3,4-dihydrospiro[chromen-2,1′-cyclobutan]-4-ol] came in with an IC50 against CETP [1] of 50 nM. The same measure, in the same setting: the figure for `CC1(C)C[C@H](O)c2c(cc(C3CCCC3)c([C@@H](O)c3ccc(C(F)(F)F)cc3)c2-c2ccc(F)cc2)O1` [Example 1, (4S)-7-Cyclopentyl-5-(4-fluorophenyl)-6-{(S)-hydroxy[4-(trifluoromethyl)phenyl]methyl}-2,2-dimethylchroman-4-ol] is 340 nM.

As for `CC(C)c1cc2c(c(-c3ccc(F)cc3)c1C(=O)c1ccc(C(F)(F)F)cc1)[C@@H](O)CC(C)(C)O2` [Example 4, [(4S)-5-(4-Fluorophenyl)-4-hydroxy-7-isopropyl-2,2-dimethyl-3,4-dihydro-2H-chromen-6-yl][4-(trifluoromethyl)phenyl]methanone], the IC50 on CETP [1] worked out at 90 nM; against CETP [2], 62 nM. Taken in the same sequence, the figures for `CC(C)c1cc2c(c(-c3ccc(F)cc3)c1[C@@H](O)c1ccc(C(F)(F)F)cc1)[C@@H](O)CC(C)(C)O2` [Example 5, (4S)-5-(4-Fluorophenyl)-6-{(S)-hydroxy[4-(trifluoromethyl)phenyl]methyl}-7-isopropyl-2,2-di-methylchroman-4-ol] were 35 nM and 29 nM. On to `CC(C)c1cc2c(c(-c3ccc(F)cc3)c1[C@H](F)c1ccc(C(F)(F)F)cc1)[C@@H](O)CC(C)(C)O2` [Example 8, (4S)-5-(4-fluorophenyl)-6-{(R)-fluoro[4-(trifluoromethyl)phenyl]methyl}-7-isopropyl-2,2-dimethylchroman-4-ol], for which half-maximal inhibition on CETP [1] (IC50) required 373 nM. Turning to `CC(C)c1cc2c(c(-c3ccc(F)cc3)c1Cc1ccc(C(F)(F)F)cc1)[C@@H](O)CC(C)(C)O2` [Example 9, (4S)-5-(4-Fluorophenyl)-7-isopropyl-2,2-dimethyl-6-[4-(trifluoromethyl)benzyl]chroman-4-ol], the IC50 against CETP [1] stood at 90 nM; on CETP [2] it was 33 nM. `CC(C)c1cc2c(c(-c3ccc(F)cc3)c1C(=O)c1ccc(OC(F)(F)F)cc1)[C@@H](O)CC(C)(C)O2` [Example 10, [(4S)-5-(4-Fluorophenyl)-4-hydroxy-7-isopropyl-2,2-dimethyl-3,4-dihydro-2H-chromen-6-yl][4-(trifluoromethoxy)phenyl]methanone] yielded an IC50 against CETP [1] of 93 nM.

Consider `CC(C)c1cc2c(c(-c3ccc(F)cc3)c1[C@@H](O)c1ccc(OC(F)(F)F)cc1)[C@@H](O)CC(C)(C)O2` [Example 11, (4S)-5-(4-Fluorophenyl)-6-{(S)-hydroxy[4-(trifluoromethoxy)phenyl]methyl}-7-isopropyl-2,2-di-methylchroman-4-ol], for which the concentration for half-maximal inhibition (IC50) was determined as 63 nM against CETP [1] and 51 nM on CETP [2]. `CC(C)c1cc2c(c(-c3ccc(F)cc3)c1C(=O)c1ccc(C(C)(C)C)cc1)[C@@H](O)CC(C)(C)O2` [Example 14, (4-tert-Butylphenyl)[(4S)-5-(4-fluorophenyl)-4-hydroxy-7-isopropyl-2,2-dimethyl-3,4-dihydro-2H-chromen-6-yl]methanone] displayed an IC50 on CETP [1] of 176 nM. This lies in the sub-micromolar range. Same read-out and setting: the figure for `CC(C)c1cc2c(c(-c3ccc(F)cc3)c1[C@@H](O)c1ccc(C(C)(C)C)cc1)[C@@H](O)CC(C)(C)O2` [Example 15, (4S)-6-[(S)-(4-tert-Butylphenyl)(hydroxy)methyl]-5-(4-fluorophenyl)-7-isopropyl-2,2-dimethyl-chroman-4-ol] is 38 nM; for `CC(C)c1cc2c(c(-c3ccc(F)cc3)c1Cc1ccc(C(C)(C)C)cc1)[C@@H](O)CC(C)(C)O2` [Example 17, (4S)-6-(4-tert-Butylbenzyl)-5-(4-fluorophenyl)-7-isopropyl-2,2-dimethylchroman-4-ol] it is 70 nM.

At CETP [1], `CC(C)c1cc2c(c(-c3ccccc3)c1C(=O)c1ccc(OC(F)(F)F)cc1)[C@@H](O)CC(C)(C)O2` [Example 18, [(4S)-4-Hydroxy-7-isopropyl-2,2-dimethyl-5-phenyl-3,4-dihydro-2H-chromen-6-yl][4-(trifluoromethoxy)phenyl]methanone] showed an IC50 of 792 nM. Regarding `CC(C)c1cc2c(c(C3=CCCCC3)c1C(=O)c1ccc(C(F)(F)F)cc1)[C@@H](O)CC(C)(C)O2` [Example 19, (5-Cyclohex-1-en-1-yl-4-hydroxy-7-isopropyl-2,2-dimethyl-3,4-dihydro-2H-chromen-6-yl)[4-(tri-fluoromethyl)phenyl]methanone], the IC50 is 200 nM against CETP [1] and 300 nM against CETP [2]. At CETP [1], `CC(C)c1cc2c(c(C3=CCCCC3)c1[C@@H](O)c1ccc(C(F)(F)F)cc1)[C@@H](O)CC(C)(C)O2` [Example 20, (4S)-5-Cyclohex-1-en-1-yl-6-{(S)-hydroxy[4-(trifluoromethyl)phenyl]methyl}-7-isopropyl-2,2-di-methylchroman-4-ol] showed an IC50 of 49 nM. Take `CC(C)c1cc2c(c(C3=CCCC3)c1[C@@H](O)c1ccc(C(F)(F)F)cc1)[C@@H](O)CC(C)(C)O2` [Example 22, (4S)-5-Cyclopent-1-en-1-yl-6-{(S)-hydroxy[4-(trifluoromethyl)phenyl]methyl}-7-isopropyl-2,2-di-methylchroman-4-ol]: the IC50 turned out to be 51 nM against CETP [1] and 57 nM against CETP [2]. In the same order, the values of `CC(C)c1cc2c(c(C3CCCC3)c1[C@@H](O)c1ccc(C(F)(F)F)cc1)[C@@H](O)CC(C)(C)O2` [Example 24, (4S)-5-Cyclopent-1-yl-6-{(S)-hydroxy[4-(trifluoromethyl)phenyl]methyl}-7-isopropyl-2,2-dimethylchroman-4-ol] are 30 nM and 16 nM. For `CC(C)c1cc2c(c(C3CCCC3)c1Cc1ccc(C(F)(F)F)cc1)[C@@H](O)CC(C)(C)O2` [Example 26, (4S)-5-Cyclopentyl-7-isopropyl-2,2-dimethyl-6-[4-(trifluoromethyl)benzyl]chroman-4-ol], the IC50 on CETP [1] was 48 nM. As to `CC(C)(C)c1ccc([C@@H](O)c2c(C3CCCC3)cc3c(c2-c2ccc(F)cc2)[C@@H](O)CC2(CCC2)O3)cc1` [Example 49], half-maximal inhibition against CETP [2] (IC50) was put at 400 nM.

As for `O[C@H]1CC2(CCC2)Oc2cc(C3CCCC3)c(C(F)c3ccc(OC(F)(F)F)cc3)c(-c3ccc(F)cc3)c21` (stereo partly drawn) [Example 54], at CETP [1], it took 39 nM to reach half-maximal inhibition (IC50). On the same count and under the same terms, to `CC(C)c1cc2c(c(-c3ccc(F)cc3)c1[C@H](O)c1ccc(C(F)(F)F)cc1)[C@@H](O)CC1(CC1)O2` [Example 56] belongs 263 nM.

As a reminder, the IC50 is the concentration that gives 50% inhibition. A higher IC50 goes with lower potency.
